Consider 5 substances from patent US8110654B2, “T cell epitope peptides of ovarian cancer anti-idiotypic antibody 6B11 and use thereof” (Peking University People;s Hospital, priority 2006, dated 2012).

Assay [1] addresses HLA-A2 (Homo sapiens, UniProt P04439, D140Y/D185E/D98H/E176V/E277Q/G131W/G231S/I119V/I121R/I166T/I218V/L300P/L318F/N151K/N90K/P208A/P217A/Q86G/Q94H/R138H/R169H/T345S). Nature of the assay: T2 cell binding assay (HLA class I expression on T2 cells, confocal microscopy). On T2 binding: key: +++: high binding capacity; ++: moderate binding capacity; +: low binding capacity. Type of assay: cell-based. To be noted: for binding capacity in T2 cell binding assay (in words): T2 cells co-incubated with peptide 24 hours; for T2 binding: T2 cells co-incubated with peptide (0.3, 3, 30 μg/ml) 24 hours, HLA class I surface expression. The method, then:
The peptides obtained by […] method and the VH CDR1 and VL CDR2 region peptides were subject to T2 cell binding assay. T2 cells were co-incubated with each peptides in different concentrations (0.3 μg/ml, 3 μg/ml and 30 μg/ml) for 24 hours and then co-incubated with anti-human MHC class I antibodies. The expression profile of HLA class I molecules on the surface of T2 cells was analyzed by confocal microscopy. […] They were synthesized together with the CDR peptides of the anti-idiotype antibody for screening CTL epitope peptides.

Assay [2] has as its system anti-idiotype antibody 6B11-CTLs (reacting cells). Nature of the assay: BrdU ELISA cell proliferation assay, 6B11-CTLs stimulated by loaded DCs. It is filed as cell-based, human. The method, then: Peripheral blood was drawn from HLA-A2 healthy human subjects. After EDTA anti-coagulation treatment, peripheral blood monocytes were isolated using Ficoll lymphocyte isolation 1×10^7 monocytes/well and AIM-V culture medium (containing 5% human AB serum) was added to 1 ml. The cells were incubated at 37° C. under 5% CO2 for 2 hours. Non-adherent cells were drawn and removed as lymphocytes and stored in liquid nitrogen for further use. The adherent cells were monocytes.
The monocytes isolated from said 6-well plates were added with 2 ml AIM-V culture medium (containing 5% human AB serum)/well. Recombinant human granulocyte-macrophage colony-stimulating factor (rh GM-CSF) and recombinant human interleukin-4 (rh IL-4) were added simultaneously both to a final concentration of 1000 U/ml, for induced incubation. On Day 4, 1 ml AIM-V culture medium (containing 5% human AB serum) was supplemented, and rh GM-CSF and rh IL-4 of the same concentration as mentioned above were also supplemented. On Day 6, 1 ml AIM-V culture medium (containing 5% human AB serum) was supplemented again. At the same time, recombinant human tumor necrosis factor-α (rh TNF-α), recombinant human α-interferon (rh IFN-α) and recombinant human interleukin-6 (rh IL-6) were added, all to a final concentration of 1000 U/ml, and prostaglandin E2 (PGE2) was added to a final concentration of 1 μg/ml. Co-incubation lasted 24 hours for inducing mature DCs.
On Day 4 during incubation of DCs, the culture medium, rh GM-CSF and rh IL-4 were supplemented. At the same time, anti-idiotype antibody 6B11 was added to a final concentration of 40 μg/ml for loading. The loaded cells were stored as stimulating cells for further use.
Mature DCs induced were harvested, washed and adjusted to a concentration of 1×10^6 cells/ml. Six CDR peptides (SEQ ID NOs: 1-6, see Table 1, artificially synthesized) in a final concentration of 30 μg/ml respectively, or each peptide of 30 μg/ml together with keyhole limpet hemocyanin (KLH) of 5 μg/ml were added for loading. The loaded cells were stored as stimulating cells for further use.
The freeze-stored autologous lymphocytes were stimulated by DCs loaded with anti-idiotype antibody 6B11 (anti-Id DCs), to obtain CTLs specific to anti-idiotype antibody 6B11 (6B11-CTLs). One period consists of 7 days. On Day 3 of every period, 10 U/ml recombinant human interleukin-2 (rh IL-2) was supplemented. Finally, anti-idiotype antibody 6B11-CTLs were obtained after a one- or three-period stimulation.
All the CDR peptides of anti-idiotype antibody 6B11 (6 peptides) were synthesized artificially. The peptides were screened for Th epitope peptides by cell proliferation assay. Anti-idiotype antibody 6B11-CTLs stimulated for one period were used as reacting cells. DCs loaded with anti-idiotype antibodies and peptides respectively were used as stimulating cells. The reacting cells and the stimulating cells (in the ratio of 10:1) were co-incubated at 37° C. under 5% CO2 for 120 hours and then subject to BrdU ELISA cell proliferation assay. Each well contained 100 μl AIM-V culture medium and 1×10^5 anti-idiotype antibody 6B11-CTLs. Within the last 2 hours during stimulation, 10 μl BrdU labeling solution was added into each well and the fluid in the wells was removed. The cells were dried at 60° C. for 1 hour. 200 μl of FixDenat solution was added into each well. The reaction continued for 30 minutes at 37° C. for fixing DNA in the lymphocytes. Finally, 100 μl BrdU monoclonal antibody was added into each well for 90 minutes. The absorption value at 450 nm was read by an automatic microplate reader after substrate chromogenic reaction for detecting the proliferation of the cells. The group of DCs without loading and the group of phytohaemagglutinin (PHA) were used as negative and positive control respectively. […] Other peptides could not stimulate the proliferation of the reacting cells. […]
(In general: Dividing cells build labelled thymidine or BrdU into new DNA.)

In assay [3] the test system is CD4 T cells. Nature of the assay: BrdU cell proliferation assay after magnetic bead sorting of CD4 T cells. It is filed as cell-based, human. The note with it: reacting cells sorted for CD4 T cells by magnetic beads. The method, then: All the CDR peptides of anti-idiotype antibody 6B11 (6 peptides) were synthesized artificially. The peptides were screened for Th epitope peptides by cell proliferation assay. Anti-idiotype antibody 6B11-CTLs stimulated for one period were used as reacting cells. DCs loaded with anti-idiotype antibodies and peptides respectively were used as stimulating cells. The reacting cells and the stimulating cells (in the ratio of 10:1) were co-incubated at 37° C. under 5% CO2 for 120 hours and then subject to BrdU ELISA cell proliferation assay. Each well contained 100 μl AIM-V culture medium and 1×10^5 anti-idiotype antibody 6B11-CTLs. Within the last 2 hours during stimulation, 10 μl BrdU labeling solution was added into each well and the fluid in the wells was removed. The cells were dried at 60° C. for 1 hour. 200 μl of FixDenat solution was added into each well. The reaction continued for 30 minutes at 37° C. for fixing DNA in the lymphocytes. Finally, 100 μl BrdU monoclonal antibody was added into each well for 90 minutes. The absorption value at 450 nm was read by an automatic microplate reader after substrate chromogenic reaction for detecting the proliferation of the cells. The group of DCs without loading and the group of phytohaemagglutinin (PHA) were used as negative and positive control respectively. […] Other peptides could not stimulate the proliferation of the reacting cells.
For further analyzing the proliferation of the cells, stimulating cells were blocked by anti-human MHC class II antibodies, for evaluating the effect of Th epitope peptides. Firstly, the optimal application concentration of MHC class II antibodies was determined by experiments to be 1:20 dilution (FIG. 3). […] Other peptides could not trigger cell proliferation, no matter whether MHC class II antibodies were applied or not (FIG. 4). […] The reacting cells were subject to magnetic bead sorting of CD4 T cells.

As to “IALITTKIA [predicted 9-mer from VH CDR3]”, in assay [1], the “binding capacity in T2 cell binding assay (in words)” value is “low binding capacity” and the T2 binding result was “+”.
For “LITTKIAWY [predicted 9-mer from VH CDR3]” the same measures were “low binding capacity” and “+”.
For “NNKYYNTAL [predicted 9-mer from VH CDR2]”, in that order: “high binding capacity” and “+++”.
For “VHSNGNTYL [predicted 9-mer from VL CDR1]” the same measures were “low binding capacity” and “+”.
Turning to “phytohaemagglutinin [PHA, reference compound]”, the “proliferation after blocking by MHC class II antibodies” value in assay [2] (anti-human MHC class II antibodies 1:20 dilution) is on record as “blocked dramatically”. The “proliferation of reacting cells 6B11-CTLs” value in assay [2] (stimulating DCs loaded with peptide 30 μg/ml or 6B11 40 μg/ml, 120 hours, BrdU, A450) is listed as “significant proliferation”. Besides, the “proliferation of sorted CD4 T cells” value in assay [3] is listed as “could trigger the proliferation”.
